# Tested on: carbapenem-resistant Escherichia coli isolate
# Assay: Digital same-sample filtration AST, one treated and one concurrent reference condition (Example 6)
# Type: cell-based
# Description: The inoculum was small enough that no detectable difference in the sample's optical density at 600 mm (OD600) was detectable by a spectrophotometer with a sensitivity of 0.01 absorbance units. The OD600 of the culture measured every 30 minutes after the culture was incubated at 37° C. to calculate the doubling time of the strain. The media became turbid with an OD600 of 0.28 absorbance units after 3.1 hours of incubation.
# In this experiment, the number and volume of sample partitions was restricted, for logistical reasons, to 96 partitions 10 μL, in volume, specifically the wells of a 96-well plate. A goal was chosen of having a >98% chance of ending up with at least 48 empty partitions. When all partitions are the same volume, the following formula relates the expected number of empty partitions, the partition volume, and the density of cells.
# N is the total number of partitions, n is the number of empty partitions, V is the partition volume, D is the density of cells, and t is a threshold probability chosen by the practitioner. Thus, in order to achieve digital sample partitioning with the available 96-well plate, the contrived clinical specimen was diluted to a cell density of 0.0375 cells/μL. Each 10 μL sample of the specimen would then contain 0.375 cells on average.
# To begin the AST protocol, the contrived clinical sample was physically split into the 96 partitions by transferring 10 μL of the sample, in 96 separate transfers (actually 12 transfers with a multichannel pipette), to 96 wells of a microtiter plate. Each well contained 15 μL of Mueller-Hinton Broth (MHB) growth media. Half of the wells (48) contained 0 μg/mL of dissolved ETP antibiotic and served as reference condition antibiotic exposures. The other half of the wells contained 1.67 μg/mL of ETP (for a final concentration of 1.0 μg/mL) and served as 48 treated condition antibiotic exposures.
# The 96 antibiotic exposures were incubated at 37° C. for 40 minutes.
# The entire volume of each antibiotic exposure was transferred to a Millipore® 96-well sterile polystyrene MultiScreenHTS® filter plate (Millipore-Sigma MSGVS2210). Each well of the filter plate contained a hydrophilic polyvinylidene fluoride (PVDF) filter membrane with a 0.22 μm pore size. The antibiotic exposures were centrifuged at 2200 relative centrifugal force to speed the passage of the antibiotic exposure through the filter and into 96 collecting vessels. The collected fluid was called the “filtrate.” It is expected that the filtrate will contain all or most of the extracellular nucleic acids present in the antibiotic exposure, but none of the intracellular nucleic acids in the antibiotic exposure.
# 50 μL of fresh MHB media was spun through the filters after the first centrifugation (above) to wash away residual extracellular nucleic acids present in the fluid wetting the filters. This wash fluid is not collected with the filtrates.
# 10 μL of each of the filtrates was added to and mixed with 10 μL of Lucigen DNA Extraction Buffer, heated to 65° C. for 6 minutes, then heated to 98° C. for 4 minutes to create extracted filtrates.
# 20 μL of DNA Extraction Buffer was placed into all of the wells of the filter plate, on top of the filters. The filter plate was heated to 65° C. for 6 minutes, shaking at 700 rpm, on a ThermoMixer® flat surface heating block. Then, the filter plate was taped to a clean 96-well polypropylene microtiter plate and centrifuged at 2000 rcf for 2 minutes. The DNA Extraction Buffer fluid that flowed through the filter was collected in the microtiter plate below the filter plate. Next, the microtiter plate was heated to 98° C. for 4 minutes inside a BioRad thermocycler. These collected and heated fluid volumes are termed the “extracted lysate”. […]
# [1] = 1.0 μg/mL ETP, 40 minutes, assuming exponential division, doubling time approximately 30 minutes
# [2] = 1.0 μg/mL ETP, 40 minutes, simple estimate
# [3] = Treated 1.0 μg ETP, 40 minutes 37° C., 48 partitions, ddPCR
smiles,measurement,setting,value
"C[C@@H](O)[C@H]1C(=O)N2C(C(=O)O)=C(S[C@@H]3CN[C@H](C(=O)Nc4cccc(C(=O)O)c4)C3)[C@H](C)[C@H]12 [ETP, ertapenem]","treated EINAPV (fraction extracellular), alternative estimate","1.0 μg/mL ETP, 40 minutes, alternative cell estimate, reference EINAPV 1/6",1/7
same,intact cells in treated condition (alternative estimate),[1],6
same,killed cells in treated condition (alternative estimate),[1],1
same,susceptibility call,"1.0 μg/mL ETP, 40 minutes, p-value vs 0.05 threshold",resistant
same,intact cells in treated condition at time of filtration (estimate),[2],3
same,killed cells in treated condition at time of filtration (estimate),[2],1
same,treated EINAPV (fraction extracellular),"1.0 μg/mL ETP, 40 minutes, simple estimate, reference EINAPV 1/4",1/4
same,Both (number of wells),[3],0
same,Empty (number of wells),[3],44
same,Extracellular only (number of wells),[3],1
same,Intracellular only (number of wells),[3],3

# From patent US20220282304A1, “SAME-SAMPLE ANTIBIOTIC SUSCEPTIBILITY TEST AND RELATED COMPOSITIONS, METHODS AND SYSTEMS” (CALIFORNIA INSTITUTE OF TECHNOLOGY, priority 2021, published 2022)
